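Tested at 5 concentrations; 48 h exposure; 96-well plates; endpoints linearly interpolated, else capped at highest concentration. GI50 marks 50% less growth. TGI denotes the concentration required for complete inhibition of growth.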
Experiments:
Assay in all cases: DTP human tumour cell line panel, 48 h
NCI-H460 lung = tested on: NCI-H460 lung
TK-10 renal = tested on: TK-10 renal
HOP-92 NSCLC = tested on: HOP-92 NSCLC
OVCAR-5 ovarian = tested on: OVCAR-5 ovarian
UACC-257 melanoma = tested on: UACC-257 melanoma
SF-539 CNS = tested on: SF-539 CNS
SN12C renal = tested on: SN12C renal
HCT-15 colon = tested on: HCT-15 colon
UO-31 renal = tested on: UO-31 renal
A549 NSCLC = tested on: A549 NSCLC

Row | Structure (SMILES) | GI50 (NCI-H460 lung) [µM] | TGI (NCI-H460 lung) [µM] | GI50 (TK-10 renal) [µM] | TGI (TK-10 renal) [µM] | GI50 (HOP-92 NSCLC) [µM] | TGI (HOP-92 NSCLC) [µM] | GI50 (OVCAR-5 ovarian) [µM] | TGI (OVCAR-5 ovarian) [µM] | GI50 (UACC-257 melanoma) [µM] | TGI (UACC-257 melanoma) [µM] | GI50 (SF-539 CNS) [µM] | TGI (SF-539 CNS) [µM] | GI50 (SN12C renal) [µM] | TGI (SN12C renal) [µM] | GI50 (HCT-15 colon) [µM] | TGI (HCT-15 colon) [µM] | GI50 (UO-31 renal) [µM] | TGI (UO-31 renal) [µM] | GI50 (A549 NSCLC) [µM] | TGI (A549 NSCLC) [µM]
1 | C=CC1CC12C(=O)C1OC2(C)C2C(=O)c3ccccc3C(=O)C12 (stereo not given) | > 58.3 | > 100 | > 49.9 | > 100 | > 77.6 | > 100 | > 54.7 | > 88.5 | > 45.9 | > 81.7 | > 82 | > 100 | > 56.3 | > 100 | 41.9 | > 100 | > 87.3 | > 100 | > 60 | > 100
2 | COc1cc2c(cc1OC)C13CCN4CC5=CCOC(CC(=O)O)C(C5CC41)C3N2 (stereo not given) |  | > 100 |  | > 100 |  | > 100 |  | > 100 |  | > 100 |  | > 100 |  | > 100 |  | > 100 |  | > 100 |  | > 100
3 | Cc1ccc(S(=O)(=O)N(C)C)cc1[N+](=O)[O-] | > 100 | > 100 | > 100 | > 100 | > 100 | > 100 | > 100 | > 100 | > 100 | > 100 | > 100 | > 100 | > 100 | > 100 | > 100 | > 100 | 21.5 | > 100 | > 100 | > 100
4 | Nc1nc2ncn(CCO)c2c(=O)[nH]1 |  | > 100 |  | > 100 |  | > 100 |  | > 100 |  | > 100 |  | > 100 |  | > 100 |  | > 100 |  | > 100 |  | > 100
5 | CO/N=C(\c1ccccc1)c1cnn(-c2ccccc2)c1N | > 25 | > 25 | > 25 | > 25 | > 12.4 | > 25 | > 25 | > 25 | > 25 | > 25 | > 25 | > 25 | > 25 | > 25 | > 25 | > 25 | > 25 | > 25 | > 25 | > 25
6 | O=C1C(=O)c2ccc(Br)cc2-c2cc(Br)ccc21 | 4.5 | > 89.2 | 22.7 | > 100 | 1.36 | 9.5 | > 41.6 | > 62.2 | 1.62 | 4.19 | 8.43 | 26.3 | 2.14 | 11.2 | 1.28 | > 35 | 5.61 | > 100 | 5.37 | > 95.6
7 | CC(C)(C)c1nc2c(o1)C(=Nc1ccccc1)c1ccccc1C2=O |  | 19.9 |  | 59.6 |  | 23.8 |  | 29.4 |  | 4.45 |  | 8.5 |  | 14.4 |  | 27.9 |  | 24.3 |  | 23.5
8 | Cc1nc2sc(C(=O)Nc3cccc4ccccc34)c(N)c2cc1C(C)O (stereo not given) | 0.184 | 9.91 | 32.2 | > 50 | 1.03 | > 47 | 1.5 | > 50 | > 50 | > 50 | 0.155 | 0.968 | 0.425 | > 50 | 0.189 | > 50 | 0.268 | > 48.3 | 0.345 | > 50
9 | Cc1c(Cl)ccc2c1NC(=O)C2(O)CC(=O)c1ccc(Cl)cc1Cl (stereo not given) |  | > 50 |  | > 50 |  | > 50 |  | > 50 |  | > 50 |  | > 50 |  | > 50 |  | > 50 |  | > 50 |  | > 50
10 | CN(C)CCC1(C2=CCCC2)CC/C(=C\c2ccc3c(c2)OCO3)C1=O (stereo not given) |  | 36.2 |  | 29.2 |  | 24.4 |  | 29.2 |  | 29 |  | 30.2 |  | 28.8 |  | 29 |  | 20.2 |  | 31.8
11 | Cc1ccc(NS(=O)(=O)c2ccc(-c3cnc(C4CC4)o3)cc2)cc1 | 3.91 | 14.9 | 9.96 | 22.1 | 2.14 | 13.2 | 9.28 | 22.6 | 10.8 | 27.8 | 3.32 | 13 | 4.1 | 17.2 | 1.48 | 13.1 | 3.49 | 16.1 | 4.55 | 26.2
12 | Brc1c[n+](Cc2ccc3ccccc3c2)cn1Cc1ccc2ccccc2c1 | 1.78 | 3.57 | 1.86 | 5.16 | 0.904 | 2.39 | 2.13 | 8.71 | 1.76 | 4.12 | 1.56 | 3.04 | 1.52 | 2.94 | 11.5 | 25.7 | 7.09 | 23.1 | 6.9 | 29.4
13 | CN(C(=O)c1ccc(F)cc1C(F)(F)F)C1CCN(c2nnc(-c3ccnn3C)c3ccccc23)CC1 | 53.9 | > 100 | 65.6 | > 100 | 16.5 | > 92.9 | > 100 | > 100 | 23.2 | > 100 | > 100 | > 100 | 51 | > 100 | 39.9 | > 100 | 22 | > 100 | 41 | > 100
14 | COc1cc(-c2c3c(cn2S(=O)(=O)c2ccccc2)-c2nc(N)sc2CC3)cc(OC)c1OC | 0.51 | 18.4 | 5.2 | 30.1 | 0.407 | 8.34 | 4.25 | > 100 | 10.3 | 60.1 | 0.548 | 5.07 | 4.45 | > 100 | 0.432 | 27.2 | 2.98 | > 100 | 0.58 | 17.1

— PubChem BioAssay (NCI)
